Where a SMILES comes first, the peptide text is derived from it. Bridges are numbered along the chain shown (N, C = ends). [ ]: non-standard residue; d: D form. ξ: configuration not given here. Trp(1-CH2COOH) = N[C@@H](Cc1cn(CC(=O)O)c2ccccc12)C(=O)O; Phe(3,4,5-F3) = N[C@@H](Cc1cc(F)c(F)c(F)c1)C(=O)O; Phe(3,4-F2) = N[C@@H](Cc1ccc(F)c(F)c1)C(=O)O; NMePhe(4-F) = CN[C@@H](Cc1ccc(F)cc1)C(=O)O; dPro(4S-Me) = C[C@@H]1CN[C@@H](C(=O)O)C1; Phe(4-F) = N[C@@H](Cc1ccc(F)cc1)C(=O)O; d(cisHyp) = O=C(O)[C@H]1C[C@@H](O)CN1; Hyp = O=C(O)[C@@H]1C[C@@H](O)CN1; NMeF = CN[C@@H](Cc1ccccc1)C(=O)O; dHyp = O=C(O)[C@H]1C[C@H](O)CN1; NMeNle = CCCC[C@H](NC)C(=O)O; Pip = O=C(O)[C@@H]1CCCCN1; dPip = O=C(O)[C@H]1CCCCN1; hSer = N[C@@H](CCO)C(=O)O; NMeA = CN[C@@H](C)C(=O)O; Orn = NCCC[C@H](N)C(=O)O; dThz = O=C(O)[C@H]1CSCN1; Dab = NCC[C@H](N)C(=O)O; Dap = NC[C@H](N)C(=O)O; ξC = NC(CS)C(=O)O; Sar = CNCC(=O)O

T1 sequence (Q9NZQ7 with tags, fused parts or gaps): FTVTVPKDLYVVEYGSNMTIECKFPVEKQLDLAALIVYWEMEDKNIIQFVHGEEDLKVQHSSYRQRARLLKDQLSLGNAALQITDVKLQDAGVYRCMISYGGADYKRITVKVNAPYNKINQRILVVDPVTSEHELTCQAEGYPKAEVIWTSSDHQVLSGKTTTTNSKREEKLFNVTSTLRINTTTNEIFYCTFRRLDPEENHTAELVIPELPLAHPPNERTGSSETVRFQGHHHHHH

One test addresses T1, Human PD-L1/PD-1 (Homo sapiens, UniProt Q9NZQ7).
T1 construct: TVMV protease cleavage site (C); made in house; host or cells: HEK293T cells
The test is described as follows: HTRF Human PD-L1/PD-1 binding assay (PD-1-Ig/PD-L1-His). To be noted: PD-L1-His 10 nM, PD-1-Ig 20 nM; class symbol; read-out: HTRF Human PD-L1/PD-1 Binding Assay IC50 Range. The gist of the method: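 Inhibitors were preincubated 15 min with human PD-L1(18-239)-His (10 nM final), then PD-1(25-167)-Ig (20 nM final) was added for 15 min in dPBS/0.1% BSA/0.05% Tween-20. Eu-cryptate anti-Ig (1 nM) and APC anti-His (20 nM) were added; 665/620 nm ratio read after 30 min.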
A general note: In TR-FRET formats the signal depends on donor and acceptor labels being close together.
For `CCCC[C@H]1C(=O)N2CSC[C@@H]2C(=O)N[C@@H](CO)C(=O)N[C@@H](C(C)C)C(=O)N(C)[C@@H](Cc2ccccc2)C(=O)N[C@@H](Cc2ccc(O)cc2)C(=O)N2CCC[C@@H]2C(=O)N[C@@H](Cc2c[nH]c3ccccc23)C(=O)N[C@@H](Cc2ccc(O)cc2)C(=O)N[C@@H](CC(C)C)C(=O)N[C@H](C(=O)NCC(N)=O)CSCC(=O)N[C@@H](Cc2ccccc2)C(=O)N(C)[C@@H](Cc2ccccc2)C(=O)N1C` [Example 10074] ({CH2CO}-F[NMeF][NMeNle][dThz]SV[NMeF]Y[dP]WYLCG-NH2; thioether N-13), the IC50 lay within 10 to 99.9 nM.
Same read-out and setting: the value for `CCCC[C@H]1C(=O)N2CCC[C@@H]2C(=O)N[C@@H](CC(=O)O)C(=O)N[C@@H](C(C)C)C(=O)N(C)[C@@H](Cc2ccc(F)cc2)C(=O)N[C@@H](CC(=O)O)C(=O)N2CCC[C@@H]2C(=O)N[C@@H](Cc2c[nH]c3ccccc23)C(=O)N[C@@H](Cc2ccc(O)cc2)C(=O)N[C@@H](CC(C)C)C(=O)N[C@H](C(=O)NCC(N)=O)CSCC(=O)N[C@@H](Cc2ccc(F)cc2)C(=O)N(C)[C@@H](Cc2ccccc2)C(=O)N1C` [Example 10110] ({CH2CO}-[Phe(4-F)][NMeF][NMeNle][dP]DV[NMePhe(4-F)]D[dP]WYLCG-NH2; thioether N-13) was 1 to 9.9 nM; that for `CCCC[C@H]1C(=O)N2CCC[C@@H]2C(=O)N[C@@H](CC(=O)O)C(=O)N[C@@H](C(C)C)C(=O)N(C)[C@@H](Cc2ccccc2)C(=O)N[C@@H](Cc2ccc(O)cc2)C(=O)N2CCC[C@@H]2C(=O)N[C@@H](Cc2c[nH]c3ccccc23)C(=O)N[C@@H](Cc2ccc(O)cc2)C(=O)N[C@@H](CCCN)C(=O)N[C@H](C(=O)NCC(N)=O)CSCC(=O)N[C@@H](Cc2cc(F)c(F)c(F)c2)C(=O)N(C)[C@@H](Cc2ccccc2)C(=O)N1C` [Example 10098] ({CH2CO}-[Phe(3,4,5-F3)][NMeF][NMeNle][dP]DV[NMeF]Y[dP]WY[Orn]CG-NH2; thioether N-13) was 1 to 9.9 nM.
On the same count and under the same terms, then `CCCC[C@H]1C(=O)N2C[C@@H](O)C[C@@H]2C(=O)N[C@@H](CC(=O)O)C(=O)N[C@@H](C(C)C)C(=O)N(C)[C@@H](Cc2ccccc2)C(=O)N[C@@H](Cc2ccc(O)cc2)C(=O)N2C[C@@H](O)C[C@@H]2C(=O)N[C@@H](Cc2c[nH]c3ccccc23)C(=O)N[C@@H](Cc2ccc(O)cc2)C(=O)N[C@@H](CC(C)C)C(=O)N[C@H](C(=O)NCC(N)=O)CSCC(=O)N[C@@H](Cc2cc(F)c(F)c(F)c2)C(=O)N(C)[C@@H](Cc2ccccc2)C(=O)N1C` [Example 9273] ({CH2CO}-[Phe(3,4,5-F3)][NMeF][NMeNle][dHyp]DV[NMeF]Y[dHyp]WYLCG-NH2; thioether N-13), with 1 to 9.9 nM; and `CCCC[C@H]1C(=O)N(C)[C@@H](CCCC)C(=O)N[C@@H](CCCNC(=N)N)C(=O)NC(C(=O)NCC(N)=O)CSCC(=O)N[C@@H](Cc2ccc(O)cc2)C(=O)N(C)[C@@H](C)C(=O)N[C@@H](CC(N)=O)C(=O)N2CCC[C@H]2C(=O)N[C@@H](CC(N)=O)C(=O)N[C@@H](CC(C)C)C(=O)N2C[C@H](O)C[C@H]2C(=O)N[C@@H](Cc2c[nH]c3ccccc23)C(=O)N[C@@H](CCO)C(=O)N[C@@H](Cc2c[nH]c3ccccc23)C(=O)N1C` (some centres unmarked) [Example 9130] ({CH2CO}-Y[NMeA]NPNL[Hyp]W[hSer]W[NMeNle][NMeNle]R[ξC]G-NH2; thioether N-14), with 1 to 9.9 nM; and `CCCC[C@H]1C(=O)N(C)[C@@H](CCCC)C(=O)N[C@@H](CC(C)C)C(=O)N[C@H](C(=O)NCC(N)=O)CSCC(=O)N[C@@H](Cc2ccc(O)cc2)C(=O)N(C)[C@@H](C)C(=O)N[C@@H](CC(N)=O)C(=O)N2CCC[C@H]2C(=O)N[C@@H](CN)C(=O)N[C@@H](CC(C)C)C(=O)N(C)CC(=O)N[C@@H](Cc2c[nH]c3ccccc23)C(=O)N[C@@H](CCN)C(=O)N[C@@H](Cc2cn(CC(=O)O)c3ccccc23)C(=O)N1C` [Example 6170] ({CH2CO}-Y[NMeA]NP[Dap]L[Sar]W[Dab][Trp(1-CH2COOH)][NMeNle][NMeNle]LCG-NH2; thioether N-14), with 1 to 9.9 nM.
The same measure, in the same setting: then `CCCC[C@H]1C(=O)N(C)[C@@H](CCCC)C(=O)N[C@@H](CCCN)C(=O)N[C@H](C(=O)NCC(N)=O)CSCC(=O)N[C@@H](Cc2ccc(OC)cc2)C(=O)N(C)[C@@H](C)C(=O)N[C@@H](CCN)C(=O)N2CCC[C@H]2C(=O)N[C@@H](CN)C(=O)N[C@@H](CCC(=O)O)C(=O)N2C[C@H](O)C[C@H]2C(=O)N[C@@H](Cc2c[nH]c3ccccc23)C(=O)N[C@@H](CC(=O)O)C(=O)N[C@@H](Cc2c[nH]c3ccccc23)C(=O)N1C` [Example 7105] ({CH2CO}-Y(Me)[NMeA][Dab]P[Dap]E[Hyp]WDW[NMeNle][NMeNle][Orn]CG-NH2; thioether N-14), with 10 to 99.9 nM.
For the molecule `CCCC[C@H]1C(=O)N2C[C@H](O)C[C@@H]2C(=O)N[C@@H](CC(=O)O)C(=O)N[C@@H](C(C)C)C(=O)N(C)[C@@H](Cc2ccccc2)C(=O)N[C@@H](Cc2ccc(O)cc2)C(=O)N2C[C@H](O)C[C@@H]2C(=O)N[C@@H](Cc2c[nH]c3ccccc23)C(=O)N[C@@H](Cc2ccc(O)cc2)C(=O)N[C@@H](CN)C(=O)N[C@H](C(=O)NCC(N)=O)CSCC(=O)N[C@@H](Cc2cc(F)c(F)c(F)c2)C(=O)N(C)[C@@H](Cc2ccccc2)C(=O)N1C` [Example 9325] ({CH2CO}-[Phe(3,4,5-F3)][NMeF][NMeNle][d(cisHyp)]DV[NMeF]Y[d(cisHyp)]WY[Dap]CG-NH2; thioether N-13), the IC50 was in the range of 1 to 9.9 nM.
On the same count and under the same terms, then `CCCC[C@H]1C(=O)N2CCC[C@@H]2C(=O)N2CCCC[C@H]2C(=O)N[C@@H](C(C)C)C(=O)N(C)[C@@H](Cc2ccccc2)C(=O)N[C@@H](Cc2ccc(O)cc2)C(=O)N2CCCC[C@@H]2C(=O)N[C@@H](Cc2c[nH]c3ccccc23)C(=O)N[C@@H](Cc2ccc(O)cc2)C(=O)N[C@@H](CC(C)C)C(=O)N[C@H](C(=O)NCC(N)=O)CSCC(=O)N[C@@H](Cc2cc(F)c(F)c(F)c2)C(=O)N(C)[C@@H](Cc2ccccc2)C(=O)N1C` [Example 3217] ({CH2CO}-[Phe(3,4,5-F3)][NMeF][NMeNle][dP][Pip]V[NMeF]Y[dPip]WYLCG-NH2; thioether N-13), with 10 to 99.9 nM.
Still for that read-out and setting: then `CCCC[C@H]1C(=O)N(C)[C@@H](CCCC)C(=O)N[C@@H](CCC(=O)O)C(=O)N[C@H](C(=O)NCC(N)=O)CSCC(=O)N[C@@H](Cc2ccc(OC)cc2)C(=O)N(C)[C@@H](C)C(=O)N[C@@H](CCN)C(=O)N2CCC[C@H]2C(=O)N[C@@H](CN)C(=O)N[C@@H](CCC(=O)O)C(=O)N2C[C@H](O)C[C@H]2C(=O)N[C@@H](Cc2c[nH]c3ccccc23)C(=O)N[C@@H](CCN)C(=O)N[C@@H](Cc2cn(CC(=O)O)c3ccccc23)C(=O)N1C` [Example 7140] ({CH2CO}-Y(Me)[NMeA][Dab]P[Dap]E[Hyp]W[Dab][Trp(1-CH2COOH)][NMeNle][NMeNle]ECG-NH2; thioether N-14), with 1 to 9.9 nM; and `CCCC[C@H]1C(=O)N(C)[C@@H](CCCC)C(=O)N[C@@H](CCCNC(=N)N)C(=O)N[C@H](C(=O)NCC(N)=O)CSCC(=O)N[C@@H](Cc2ccc(O)cc2)C(=O)N(C)[C@@H](C)C(=O)N[C@@H](CC(N)=O)C(=O)N2CCC[C@H]2C(=O)N[C@@H](Cc2cnc[nH]2)C(=O)N[C@@H](CCC(=O)O)C(=O)N2C[C@H](O)C[C@H]2C(=O)N[C@@H](Cc2c[nH]c3ccccc23)C(=O)N[C@@H](CO)C(=O)N[C@@H](Cc2cn(CC(=O)O)c3ccccc23)C(=O)N1C` [Example 6228] ({CH2CO}-Y[NMeA]NPHE[Hyp]WS[Trp(1-CH2COOH)][NMeNle][NMeNle]RCG-NH2; thioether N-14), with 1 to 9.9 nM.
On the same count and under the same terms, the value for `CCCC[C@H]1C(=O)N2C[C@@H](C)C[C@@H]2C(=O)N[C@@H](CC(=O)O)C(=O)N[C@@H](C(C)C)C(=O)N(C)[C@@H](Cc2ccccc2)C(=O)N[C@@H](Cc2ccc(OC)cc2)C(=O)N2C[C@@H](O)C[C@@H]2C(=O)N[C@@H](Cc2c[nH]c3ccccc23)C(=O)N[C@@H](Cc2ccc(O)cc2)C(=O)N[C@@H](CCCN)C(=O)N[C@H](C(=O)NCC(N)=O)CSCC(=O)N[C@@H](Cc2ccc(F)c(F)c2)C(=O)N(C)[C@@H](Cc2ccccc2)C(=O)N1C` [Example 9229] ({CH2CO}-[Phe(3,4-F2)][NMeF][NMeNle][dPro(4S-Me)]DV[NMeF]Y(Me)[dHyp]WY[Orn]CG-NH2; thioether N-13) was 1 to 9.9 nM; that for `CCCC[C@H]1C(=O)N(C)[C@@H](CCCC)C(=O)N[C@@H](CN)C(=O)N[C@H](C(=O)NCC(N)=O)CSCC(=O)N[C@@H](Cc2ccc(O)cc2)C(=O)N2CCCC[C@H]2C(=O)N[C@@H](CC(N)=O)C(=O)N2CCC[C@H]2C(=O)N[C@@H](Cc2cnc[nH]2)C(=O)N[C@@H](CCC(N)=O)C(=O)N2C[C@H](O)C[C@H]2C(=O)N[C@@H](Cc2c[nH]c3ccccc23)C(=O)N[C@@H](CCN)C(=O)N[C@@H](Cc2cn(CC(=O)O)c3ccccc23)C(=O)N1C` [Example 1301] ({CH2CO}-Y[Pip]NPHQ[Hyp]W[Dab][Trp(1-CH2COOH)][NMeNle][NMeNle][Dap]CG-NH2; thioether N-14) was 10 to 99.9 nM.

Still in this test, the particulars now being: PD-L1-His 10 nM, PD-1-Ig 20 nM; read-out: HTRF Human PD-L1/PD-1 Binding Assay IC50.
For the molecule `CCCC[C@H]1C(=O)N2C[C@H](O)C[C@@H]2C(=O)N[C@@H](CC(=O)O)C(=O)N[C@@H](C(C)C)C(=O)N(C)[C@@H](Cc2ccccc2)C(=O)N[C@@H](CC(=O)O)C(=O)N2C[C@H](O)C[C@@H]2C(=O)N[C@@H](Cc2c[nH]c3ccccc23)C(=O)N[C@@H](Cc2ccc(O)cc2)C(=O)N[C@@H](CCN)C(=O)N[C@H](C(=O)NCC(N)=O)CSCC(=O)N[C@@H](Cc2cc(F)c(F)c(F)c2)C(=O)N(C)[C@@H](Cc2ccccc2)C(=O)N1C` [Example 9347] ({CH2CO}-[Phe(3,4,5-F3)][NMeF][NMeNle][d(cisHyp)]DV[NMeF]D[d(cisHyp)]WY[Dab]CG-NH2; thioether N-13), the IC50 was 10.9 nM.

The values above are taken from patent US10538555B2, “Macrocyclic inhibitors of the PD-1/PD-L1 and CD80(B7-1)/PD-L1 protein/protein interactions” (BRISTOL-MYERS SQUIBB COMPANY, priority 2014, dated 2020).
